# Data from US12612650B2, “Methods for improved homologous recombination and compositions thereof” (LIFE TECHNOLOGIES CORPORATION, priority 2017, dated 2026).
# Test system: genomic locus of beta-actin
# Assay: OFP-positive cells by flow cytometry after electroporation of Cas9 RNP and donor DNA into human primary T cells
# Type: cell-based
# Conditions: 30 μM, 48 hours
# Procedure: Human peripheral blood mononuclear cells (PBMCs) were isolated from peripheral blood using Ficoll-Paque PLUS density gradient according to manufacturer's instructions. The human primary T cells were then isolated using DYNABEADS™ UNTOUCHED™ Human T Cells Kit and expanded using OPTMIZER™ CTS™ T-Cell Expansion SFM supplemented with 200 IU/mL of IL-2. The activation and expansion of human T cells were carried out using DYNABEADS™ Human T-Expander CD3/CD28 kit. On day 3 of activation, T cells were harvested for transfection.
# For transfection of primary T cells, 1×10^5 cells were used per NEON® electroporation with voltage set at 1700V, pulse width set at 20 ms, and the number of pulses set at 1, respectively. […] Cells were analyzed at 48 hours post transfection.
# Traditionally, a plasmid donor was used to incorporate large DNA molecules into the genome. […] At 48 hours post transfection, we analyzed the percentages of OFP-positive cells using flow cytometry. […]
# Linear ds- or ss-DNA donor could be degraded in vivo by exonucleases. […] At 48 hours post transfection, the percentages of OFP-positive cells were determined by flow cytometric analysis. […]
# The disruption of NHEJ repair pathway is known to improve HDR efficiency. […] At 48 hours post transfection, we analyzed the cells by flow cytometry.
structure (smiles),measurement,setting,value
"O=c1cc(N2CCOCC2)oc2c1ccc1ccccc12 [Nu7026, 2-(4-Morpholinyl)-4H-naphthol[1,2-b]pyran-4-one]",increase of the percentage of OFP-positive cells,amine-modified donor DNA,~2 fold
same,increase of the percentage of OFP-positive cells,unmodified donor DNA,approximately 5 fold
